What was measured:
T. cruzi epimastigotes = experiment: Cellular respiration of epimastigotes (high-resolution respirometry); format: cell-based, Trypanosoma cruzi
Description: Figure 4 Effect of Ru265 on Trypanosoma cruzi. (a) Effect of Ru265 on epimastigote growth. Growth of control epimastigotes in LIT medium in the presence of 1 μM, 5 μM, and 10 μM Ru265. (b) Effect of Ru265 on trypomastigote attachment. Trypomastigotes were pretreated for 30 min with 1 μM antimycin A (AA) or 10 μM Ru265 and added to glutaraldehyde-fixed Vero cells. After 1 h of incubation at 37 °C, the cells were washed, and the number of attached trypomastigotes was counted. […] (c) Effect of Ru265 on trypomastigotes infection. Trypomastigotes were pretreated for 30 min with 1 μM antimycin A or 10 μM Ru265 and added to Vero cells. After 4 h of incubation at 37 °C, the cells were washed, and the number of intracellular parasites was counted. […] (f) Routine respiration (initial oxygen flux values), leak respiration after the addition of 0.5 µg/mL of oligomycin A, and electron transfer system (ETS) capacity after the sequential additions of FCCP (0.2 μM each) were measured for each condition. […] (g) Representative experiment showing mitochondrial Ca^2+ uptake by intact epimastigotes in relative fluorescence units (RFU). […] (h) Changes in fluorescence (before and after ionomycin addition) from three experiments like that shown in panel (g). […]

[1] = tested on: T. cruzi epimastigotes (control, TcMICU1-KO, TcMICU2-KO); experiment: Mitochondrial membrane potential of digitonin-permeabilized epimastigotes (safranine O); format: cell-based, Trypanosoma cruzi; conditions: TcMICU1-KO or TcMICU2-KO cells, succinate
From the text: To determine whether the defect in mitochondrial Ca^2+ uptake in the presence of inhibitors was not secondary to mitochondrial membrane depolarization, we measured the mitochondrial membrane potential (Δψm) of digitonin-permeabilized epimastigotes using safranine O in the presence of succinate as mitochondrial substrate.
Figure 3 Effect of inhibitors on the mitochondrial membrane potential of epimastigotes. Changes in mitochondrial membrane potential (Δψm) of digitonin-permeabilized epimastigotes as detected by changes in safranine O fluorescence in control (a), TcMICU1-KO (b), and TcMICU2-KO (c) epimastigotes in the absence or presence of inhibitors. Cells (5 × 10^7) were added to the reaction buffer (2 mL) containing 0.2% BSA, 5 mM succinate, 50 μM EGTA and 5 μM safranine O. The reaction was started with 50 μM digitonin (DIG) in the presence or absence of the inhibitor, and 250 μM ADP, 1.5 μM carboxyatractyloside (CAT), 50 μM CaCl2 (Ca^2+), 200 μM EGTA, and 4 μM FCCP were added when indicated. A decrease in fluorescence after permeabilization with digitonin indicated the accumulation of the dye in energized mitochondria. The addition of ADP produced a small dissipation of membrane potential, indicating ADP phosphorylation. Δψm returned to its initial level after the addition of the adenine nucleotide translocator inhibitor CAT. The addition of FCCP collapsed the membrane potential. (d) Changes in safranine O fluorescence after digitonin addition (between 30 and 60 s) in control (C), TcMICU1-KO and TcMICU2-KO epimastigotes. […] Changes in safranine O fluorescence in control (C) (e), TcMICU1-KO (1-KO) (f), and TcMICU2-KO (2-KO) (g) epimastigotes after addition of ADP from three experiments like that shown in panels (a–c).
Estimation of mitochondrial membrane potential in situ was done spectrofluorometrically using the indicator dye safranine O, as described previously. […] Fluorescence changes were monitored using the Hitachi F-7000 spectrofluorometer (excitation of 495 nm and emission of 586 nm).

N.N.N.N.N.N.N.N.[Cl][Ru+3].[N-]=[Ru][Cl] [Ru265]
Uncoupled respiratory control rate (state 3u / rate with oligomycin) (T. cruzi epimastigotes; 10 µM Ru265, n = 3): 1.70 ± 0.04 | Effect on O2 consumption level (T. cruzi epimastigotes; control epimastigotes, 10 µM Ru265, compared with parasites without inhibitor): did not affect O2 consumption level | Effect on mitochondrial membrane potential (Δψm) and response to ADP [1]: did not significantly affect
